Our source for the IC50 values is US9474790B2, “Stable, protracted GLP-1/glucagon receptor co-agonists for medical use” (Novo Nordisk A/S, priority 2013, dated 2016).

SMILES strings stand for the structures. Numbered stars: 1 amine (or outer) side, 2 acyl side, 3 side chain; on linkers, the order of the positions; unused ones are H or OH. Square brackets hold non-standard residues; d marks the D form. Side chains are listed from the residue outwards. Peptide text beside a SMILES is read from it. * marks the point of attachment. C18 diacid = O=C(O)CCCCCCCCCCCCCCCCC(=O)*; γGlu = O=C(O)[C@H](CCC(=O)[*:2])N[*:1]; Ac4c = NC1(C(=O)O)CCC1; AEEA = NCCOCCOCC(=O)O; Aib = CC(C)(N)C(=O)O

This test has as its target T1, human glucagon receptor (Homo sapiens, UniProt P47871).
T1 construct: expressed in transfected cells; host or cells: BHK cells (parent BHK570, CRE luciferase clone BHK/KZ10-20-48), clone pLJ6'-4-25
Briefly: Glucagon receptor binding, 125I-glucagon displacement SPA on isolated membranes. The settings on record: displacement of 125I-glucagon from membranes; read-out: IC50 GlucR. The protocol: The purpose of this assay was to test the in vitro receptor binding activity (i.e. affinity) of the glucagon derivatives of the invention. The receptor binding activity is a measure of affinity of a derivative for the human glucagon receptor.
The receptor binding of each compound to the human glucagon receptor was measured in a displacement binding assay. In this type of assay a labelled ligand (in this case 125I-glucagon) is bound to the receptor. Each derivative was added in a series of concentrations to isolated membranes containing the human glucagon receptor and displacement of the labelled ligand is monitored. The receptor binding was reported as the concentration at which half of the labelled ligand is displaced from the receptor, the IC50 value.
In order to test the binding of the derivatives to albumin, the assay may be performed in a very low concentration of serum albumin (max. 0.001% final assay concentration) as well as in the presence of a higher concentration of serum albumin (0.2% final assay concentration). An increase of the IC50 value, in the presence of serum albumin indicates an affinity to serum albumin and represents a method to predict a protracted pharmacokinetic profile of the test substance in animal models.
The following chemicals were used in the assay: DMEM w Glutamax (Gibco 61965-026), Pen/strep (Invitrogen 15140-122), G418 (Invitrogen 10131-027), Versene (Gibco 15040), 1 M Hepes (Gibco 15630), PBS (Invitrogen 14190-094), fetal calf serum (Invitrogen 16140-071), MgCl2 (Merck 1.05832.1000), EDTA (Invitrogen 15575-038), CaCl2 (Sigma, C5080), Tween 20 (Amresco 0850C335), ovalbumin (Sigma A5503), SPA particles (wheat germ agglutinin (WGA) SPA beads, Perkin Elmer RPNQ0001), [125I]-glucagon (produced in-house), OptiPlate™-96 (Packard 6005290).
HME buffer consisted of 25 mM HEPES, 2 mM MgCl2 and 1 mM EDTA, and pH was adjusted to 7.4. Assay buffer consisted of 50 mM HEPES supplemented with 5 mM MgCl2, 1 mM CaCl2, 0.02% Tween 20 and 0.1% Ovalbumin, and pH was adjusted to 7.4.
The cells used in this assay (clone BHK hGCGR A3*25) were BHK cells stable transfected with an expression plasmid containing the cDNA encoding the human glucagon receptor.
The cells were grown at 5% CO2 in DMEM, 10% fetal calf serum, 1% Pen/Strep (Penicillin/Streptomycin) and 1.0 mg/ml of the selection marker G418. To make a membrane preparation the cells were grown to approximately 80% confluence. The cells were washed twice in phosphate-buffered saline and harvested. The cells were pelleted using a brief centrifugation and the cell pellet was kept on ice. Lyse the cells by adding approx. 5 ml HME buffer, mix by pipetting and snap freeze in liquid nitrogen. Thaw quickly and add HME buffer to 10 ml. The cell pellet was homogenised with an ULTRA-THURRAX dispersing instrument for 20-30 sec. The homogenate was centrifuged at 20.000×G, 4° C. for 10 min. The pellet was re-suspended (homogenised) in 1-2 ml HME buffer. The protein concentration was determined. The membranes were aliquoted and snap-frozen in liquid nitrogen and stored at minus 80° C.
1. For the receptor binding assay, 50 μl of the assay buffer was added to each well of an assay plate.
2. Test compounds were serially diluted to give the following concentrations: 8×10EE-7 M, 8×10EE-8 M, 8×10EE-9 M, 8×10EE-10 M, 8×10EE-11 M, 8×10EE-12 M and 8×10EE-13 M. Twenty-five μl were added to appropriate wells in the assay plate.
3. Cell membrane aliquots were thawed and diluted to their working concentration. Fifty μl were added to each well in the assay plate.
4. WGA SPA beads were suspended in assay buffer at 20 mg/ml. The suspension was diluted to 10 mg/ml in assay buffer just prior to addition to the assay plate. Fifty μl were added to each well in the assay plate.
5. The incubation was started by adding 25 μl of 480 pM solution of [125I]-glucagon to each well of the assay plate. A 25 μl aliquot was reserved for measuring total counts/well.
6. The assay plate was incubated for 2 h at 25° C.
7. […]

T1 sequence (P47871 26-477): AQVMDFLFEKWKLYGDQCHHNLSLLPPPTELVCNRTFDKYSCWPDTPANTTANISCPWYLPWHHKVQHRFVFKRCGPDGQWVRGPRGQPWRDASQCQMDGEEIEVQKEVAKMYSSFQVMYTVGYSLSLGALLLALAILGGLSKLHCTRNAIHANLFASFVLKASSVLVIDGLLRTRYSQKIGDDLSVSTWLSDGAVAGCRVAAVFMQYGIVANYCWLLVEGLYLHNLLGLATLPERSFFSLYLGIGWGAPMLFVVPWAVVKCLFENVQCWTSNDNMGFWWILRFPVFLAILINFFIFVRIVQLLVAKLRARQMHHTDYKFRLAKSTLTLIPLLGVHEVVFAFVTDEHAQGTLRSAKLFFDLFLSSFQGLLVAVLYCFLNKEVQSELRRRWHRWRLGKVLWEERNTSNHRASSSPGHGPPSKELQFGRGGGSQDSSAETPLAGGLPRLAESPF

For the compound `CC(C)C[C@H](NC(=O)[C@H](CC(=O)O)NC(=O)[C@H](CC(C)C)NC(=O)[C@H](Cc1ccc(O)cc1)NC(=O)[C@H](CCCCN)NC(=O)[C@H](CO)NC(=O)[C@H](CC(C)C)NC(=O)[C@H](CC(=O)O)NC(=O)[C@H](CO)NC(=O)[C@@H](NC(=O)[C@H](Cc1ccccc1)NC(=O)[C@@H](NC(=O)CNC(=O)[C@H](CCC(N)=O)NC(=O)C1(NC(=O)[C@@H](N)Cc2c[nH]cn2)CCC1)[C@@H](C)O)[C@@H](C)O)C(=O)N[C@@H](CCCCN)C(=O)N[C@@H](CCCNC(=N)N)C(=O)N[C@@H](C)C(=O)N[C@@H](CCCNC(=N)N)C(=O)N[C@@H](CCC(=O)O)C(=O)N[C@@H](Cc1ccccc1)C(=O)N[C@H](C(=O)N[C@@H](CCC(N)=O)C(=O)N[C@@H](Cc1c[nH]c2ccccc12)C(=O)N[C@@H](CC(C)C)C(=O)N[C@@H](CC(C)C)C(=O)N[C@@H](CCCCNC(=O)CC[C@H](NC(=O)CC[C@H](NC(=O)COCCOCCNC(=O)COCCOCCNC(=O)CC[C@H](NC(=O)CC[C@H](NC(=O)CCCCCCCCCCCCCCCCC(=O)O)C(=O)O)C(=O)O)C(=O)O)C(=O)O)C(=O)N[C@H](C(N)=O)[C@@H](C)O)C(C)C` [Example 47, N^ε28-[(4S)-4-carboxy-4-[[(4S)-4-carboxy-4-[[2-[2-[2-[[2-[2-[2-[[(4S)-4-carboxy-4-[[(4S)-4-carboxy-4-(17-carboxyheptadecanoylamino)butanoyl]amino]butanoyl]amino]ethoxy]ethoxy]acetyl]amino]ethoxy]ethoxy]acetyl]amino]butanoyl]amino]butanoyl]-[Acb2,Leu10,Leu16,Lys17,Arg20,Glu21,Leu27,Lys28]-Glucagon amide] (H-H[Ac4c]QGTFTSDLSKYLDLKRAREFVQWLLK([γGlu-γGlu-AEEA-AEEA-γGlu-γGlu-C18 diacid])T-NH2; N-terminus assumed), the half-inhibitory concentration (IC50) is 1.5 nM.
Consider `CC(C)C[C@H](NC(=O)[C@H](Cc1ccc(O)cc1)NC(=O)[C@H](CCCCN)NC(=O)[C@H](CO)NC(=O)[C@H](CC(C)C)NC(=O)[C@H](CC(=O)O)NC(=O)[C@H](CO)NC(=O)[C@@H](NC(=O)[C@H](Cc1ccccc1)NC(=O)[C@@H](NC(=O)CNC(=O)[C@H](CCC(N)=O)NC(=O)C(C)(C)NC(=O)[C@@H](N)Cc1c[nH]cn1)[C@@H](C)O)[C@@H](C)O)C(=O)N[C@@H](CCC(=O)O)C(=O)N[C@@H](CO)C(=O)N[C@@H](CCCNC(=N)N)C(=O)N[C@@H](CCCNC(=N)N)C(=O)N[C@@H](C)C(=O)N[C@@H](CCCNC(=N)N)C(=O)N[C@@H](CCC(=O)O)C(=O)N[C@@H](Cc1ccccc1)C(=O)N[C@H](C(=O)N[C@@H](CCC(N)=O)C(=O)N[C@@H](Cc1c[nH]c2ccccc12)C(=O)N[C@@H](CC(C)C)C(=O)N[C@@H](CC(C)C)C(=O)N[C@@H](CCCCNC(=O)CC[C@H](NC(=O)COCCOCCNC(=O)COCCOCCNC(=O)CC[C@H](NC(=O)CC[C@H](NC(=O)CCCCCCCCCCCCCCCCC(=O)O)C(=O)O)C(=O)O)C(=O)O)C(=O)N[C@H](C(N)=O)[C@@H](C)O)C(C)C` [Example 20, N^ε29-[(4S)-4-carboxy-4-[[2-[2-[2-[[2-[2-[2-[[(4S)-4-carboxy-4-[[(4S)-4-carboxy-4-(17-carboxyheptadecanoylamino)butanoyl]amino]butanoyl]amino]ethoxy]ethoxy]acetyl]amino]ethoxy]ethoxy]acetyl]amino]butanoyl]-[Aib2,Leu10,Glu15,Arg20,Glu21,Leu27,Lys28]-Glucagon amide] (H-H[Aib]QGTFTSDLSKYLESRRAREFVQWLLK([γGlu-AEEA-AEEA-γGlu-γGlu-C18 diacid])T-NH2; N-terminus assumed), for which the IC50 was found to be 6.7 nM.
